Test results from PMC10574351, “First-Row Transition Metal Complexes Incorporating the 2-(2′-pyridyl)quinoxaline Ligand (pqx), as Potent Inflammatory Mediators: Cytotoxic Properties and Biological Activities against the Platelet-Activating Factor (PAF) and Thrombin” (Molecules, 2023).

Tests used:
[1] = tested on: HEK293T (human embryonic kidney cells); test: MTT cell viability assay, HEK293T; assay type: cell-based; conditions: for IC50: 48 h exposure, mean ± SD; for cytotoxic effect in HEK293T: 48 h
Experimental: In this report, cell viability tests were conducted in HEK293T and HeLa cancer cells by means of the colorimetric 3-(4,5-dimethylthiazol-2-yl)-2,5-diphenyl tetrazolium bromide (MTT) assay after exposure for 48 h. A HeLa cancer cell line was selected since it is widely used in cytotoxicity studies. For all complexes, a 10 mM stock solution in DMSO (H2O for cisplatin) was prepared and diluted appropriately to reach the final concentration reported in the Materials and Methods. The non-cancerous HEK293T cell line was used for comparison. The IC50 values of the first-row metal complexes, the pqx ligand and cisplatin, presented herein were calculated using a dose-response model, which was obtained from sigmoidal fitting of dose-response curves.
The HEK293T cell line (immortalized human embryonic kidney cells) was obtained from the Biomedical Research Foundation Academy of Athens (BRFAA), Athens, Greece and the HeLa cell line (cervical cancer cells) was obtained from the National Centre For Scientific Research Demokritos (NCSR Demokritos), Athens, Greece.
Pqx metal complexes were diluted in stock solutions of 10 mM in dimethyl sulfoxide (DMSO). A similar concentration of cisplatin dissolved in H2O was used. HEK293T and HeLa cells were cultured in Dulbecco’s modified Eagle’s medium (DMEM) with high glucose (Biosera, Nuaille, France) supplemented with 10% fetal bovine serum at 37 °C and 5% CO2. Cells were seeded in sterile tissue culture 96-well plates (SPL Life Science, Pochon, Republic of Korea) at a density of 3000 cells per well. After 24 h, the medium was removed and replaced with fresh media containing various concentrations (0.01 μΜ, 0.1 μΜ, 1 μΜ, 10 μΜ, 25 μΜ, 40 μΜ, 55 μΜ, 70 μΜ, 85 μΜ and 100 μΜ) of the compounds to be tested and was further incubated for 48 h at 37 °C. Dimethyl sulfoxide (DMSO) was used as a vehicle at ≤1%. To measure cytotoxicity, a culture medium containing the compounds (or DMSO) was removed, and 100 μL of 0.5 mg/mL MTT reagent (Applichem, Darmstadt, Germany) diluted in DMEM was added to the cells for 3 h at 37 °C. After 3 h incubation in identical conditions, MTT was removed and 200 μL of DMSO was added. Absorbance values of formazan were measured at 540 nm using a BioTek Synergy H1 microplate reader (Agilent, Santa Clara, CA, USA). All compounds were tested in triplicate. The results were statistically analyzed using the nonlinear regression by GraphPad PRISM (Version 9).

[2] = tested on: thrombin-induced aggregation in washed rabbit platelets (WRPs); test: Inhibition of thrombin-induced aggregation in washed rabbit platelets; assay type: cell-based; conditions: for IC50: washed rabbit platelets, mean ± SD, read-out: IC50 (μM) towards Thrombin in WRPs
Experimental: The biological experiments of PAF-induced platelet aggregation as well as the evaluation of the inhibitory effect of its synthetic compounds were performed according to thoroughly described protocols. The inhibitory effect of the starting materials (pqx = 2-(2′-pyridyl)quinoxaline, CrCl3 × 3H2O, MnCl2 × 4H2O, FeCl2 × 4H2O, CoCl2 × 6H2O, NiCl2 × 6H2O, CuCl2 × 2H2O, ZnCl2) and of the coordination compounds 1–7, towards PAF and thrombin related biological activities (aggregation experiments) in washed rabbit platelets (WRPs) was carried out according to previously described protocols. Briefly, in order to obtain the washed rabbit platelets (WRPs), platelet-rich plasma was washed on Ficoll–Paque cushions and adjusted to […] platelets/mL of Tyrode’s buffer, pH 7.2. The dilution of PAF was prepared using pyrogen-free 0.15 M NaCl containing 2.5 mg/mL of crystallized bovine serum albumin, required for dispersion of PAF. The compounds under investigation were firstly dissolved in the appropriate solvent that is: DMSO for pqx (0.010 M), H2O for CrCl3 × 3H2O (0.016 M), H2O for MnCl2 × 4H2O (0.004 M), DMSO-EtOH (4/1, v/v)) for FeCl2 × 4H2O (0.014 M), H2O for CoCl2 × 6H2O (0.010 M), H2O for NiCl2 × 6H2O (0.010 M), H2O for CuCl2 × 2H2O (0.008 M), H2O for ZnCl2 (0.013 M), DMSO for 1 (0.017 M), DMSO for 2 (0.010 M0, DMSO for 3 (0.004 M), DMSO for 4 (0.002 M), DMSO for 5 (0.003 M), DMSO-EtOH-H2O (25/1/1, v/v)) for 6 (0.006 M), DMSO for 7 (0.002 M) and aliquots of these solutions were then added in solutions (2.5 mg BSA/mL) of saline.
The experiment on the inhibitory effect of each compound of interest against the washed rabbit platelets (WRPs) aggregation was carried out as per the already described method. The platelets were from male New Zealand white rabbits (about 20), individually housed in stainless steel cages in an air-conditioned room (19 ± 1 °C, 55 ± 5% humidity on a 12/12 h artificial light/dark cycle). Blood samples were drawn from the main ear artery. Microliters of PAF in a final concentration of about 10^–10 M were added to the cuvette of the aggregometer, and the height of the platelet aggregation was monitored. The platelet aggregation induced by PAF, or thrombin was measured before (considered as 0% inhibition) and after the addition of various concentrations of the examined sample, creating a linear curve of percentage inhibition (ranging from 0 to 100%) versus different concentrations of the sample. From this curve, the concentration of the sample that inhibited 50% PAF-induced aggregation was calculated, and this value was defined as IC50 (Inhibitory concentration for 50% Inhibition). Dithiothreitol-insensitive PAF choline phosphotransferase, lyso-PAF:acetyl-CoA acetyltransferase and PAF-acetylhydrolase activity assays were performed on the homogenates of rabbit leukocytes while the activity of lipoprotein-associated phospholipase A2 was assessed on plasma as previously described. The experiments were performed in a model 400 vs. aggregometer of Chrono-Log (Havertown, PA, USA) coupled to a Chrono-Log recorder at 37 °C with constant stirring at 1200 rpm. The separation of platelets was performed with centrifugations in a 3L-R Heraeus Labofuge (Hvanau, Germany), a 400R Heraeus Labofuge and an RC-5B Sorvall (Newtown, CT, USA) refrigerated super speed centrifuge. Bovine serum albumin (BSA), PAF and analytical solvents for the biological assays were purchased from Sigma. Standard active thrombin was purchased from Sigma, St. Lewis, MO, USA. The measurements were performed in duplicates for each sample concentration in three different WRP preparations, in order to ensure reproducibility. All experiments were also followed by appropriate control tests of the solvent used (saline solution of BSA, DMSO aliquots in a saline solution of BSA-2.5 mg BSA/mL saline- or just in saline), in WRPs. […]

Compound	IC50 [1] [µM]	IC50 [2] [µM]	cytotoxic effect in HEK293T [1]	fold decrease of thrombin IC50 relative to the metal precursor ([2]; complex versus its metal precursor)
CS(C)=O.[Cl][Cu][Cl].c1ccc(-c2cnc3ccccc3n2)nc1 [Complex 3, [Cu(pqx)Cl2(DMSO)]]	2.1 ± 0.52	3.1 ± 0.4		
[Fe(pqx)Cl2]2 [Complex 6]	65.8 ± 13.2	0.46 ± 0.03		
[Co(pqx)Cl2(DMF)] [Complex 2]	67 ± 12.6	8.9 ± 1.3		
mer-[Cr(pqx)Cl3(H2O)] [Complex 1]	99 ± 6.16	54.6 ± 10.4	negligible cytotoxic effects	
[Mn(pqx)(H2O)2Cl2]2 [Complex 5]	28.8 ± 6.16	14 ± 2.1		
[Ni(pqx)Cl2]2 [Complex 7]	25.5 ± 8.61	5.6 ± 0.34		
[Cl][Zn][Cl].c1ccc(-c2cnc3ccccc3n2)nc1 [Complex 4, [Zn(pqx)Cl2]]	94.9 ± 23.2	3.5 ± 0.3	negligible cytotoxic effects	~ 12 fold
